Measured values from paper PMC6018403 (Frontiers in Pharmacology, 2018).
“Also recorded” adds a separate entry of the source. Where two headings read alike, the source gives them in different places.

Columns and labels:
P-glycoprotein (P-gp) = molecular target: T1, P-glycoprotein (P-gp) (Homo sapiens, UniProt P08183); experiment: P-gp inhibitor and inducer experiments on Caco-2 cell monolayer; assay type: in vitro ADME; conditions: for interaction with P-gp: Caco-2 cell monolayer
T1 construct: host or cells: Caco-2 (human colon adenocarcinoma) monolayers, passages 24-35
Procedure: The final concentration of GQD, GQD−GC, and Huang-Lian water extracts were 32, 28, and 6 μg/mL, respectively. […]
containing glucose (25 mM) and HEPES (10 mM). The final concentration of berberine was 5 µM. The final concentration of DMSO was below 1% (v/v). […]
inducer of Caco-2 cells, respectively. For the inhibitor experiments, the Caco-2 cells were cultivated in DMEM until the 21st day. After removal of the medium, the cells were incubated for 30 minutes with HBSS containing 5 µM of verapamil. For the inducer experiments, the cells were cultivated in DMEM until the 18th day, and then […]
was removed on the 21st day, and the cells were then incubated for 30 min with HBSS.
Berberine and glycyrrhizic acid were added to the system following HBSS incubation.
For all bidirectional transport assays, samples (300 µL) were collected after 30, 60, 90, […]
with an equal volume of HBSS. The samples were freeze-dried and then dissolved in 300 µL of methanol. The solutions were filtered through 0.22-µm membranes before […]
3. Inhibitor and inducer experiments […]
respectively. For the inhibition experiments, Caco-2 cells were cultivated in DMEM until the 21st day. After removal of the medium, the cells were incubated for 30 minutes with HBSS containing verapamil (5 µM). For induction experiments, the cells were cultivated in DMEM until the 18th day, and then cultivated in DMEM […]
The medium was removed on the 21st day, and the cells were then incubated for 30 min with HBSS. Berberine and glycyrrhizic acid were added to the system following HBSS incubation.

[1] = Multi-component pharmacokinetic study of GQD, GQD-GC and single herb extracts in rats (plasma, LC/MS/MS); assay type: in vivo, Sprague-Dawley rats; conditions: for AUC(0-t) / Cmax / half-life / Tmax: male, Sprague-Dawley, rat; for AUC(0-t): po, read-out: AUClast; for Cmax: read-out: Cmax; for half-life: read-out: T1/2 (converted); for Tmax: read-out: Tmax
How it was run: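 Male Sprague-Dawley rats (220–250 g, n = 10 per group) dosed orally with GQD, GQD-GC (1.0 g crude drug/mL) or single-herb decoctions. Plasma analytes quantified by LC/MS/MS in positive-ESI SRM mode. Cmax and Tmax taken from measured data, other parameters by non-compartmental or compartmental analysis; mean ± SD.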

[2] = plasma, 18.9 g/kg, GQD group: rats, oral GQD extract 18.9 g/kg, plasma
[3] = GQD group: rats, oral GQD extract 18.9 g/kg, plasma
[4] = GQD-GC group (GQD without Gan-Cao): rats, oral 16.5 g/kg, plasma
[5] = HL (Huang-Lian) group: rats, oral extract 3.54 g/kg, plasma
[6] = GC (Gan-Cao) group: rats, oral extract 2.36 g/kg, plasma

T1 sequence (P08183 whole entry): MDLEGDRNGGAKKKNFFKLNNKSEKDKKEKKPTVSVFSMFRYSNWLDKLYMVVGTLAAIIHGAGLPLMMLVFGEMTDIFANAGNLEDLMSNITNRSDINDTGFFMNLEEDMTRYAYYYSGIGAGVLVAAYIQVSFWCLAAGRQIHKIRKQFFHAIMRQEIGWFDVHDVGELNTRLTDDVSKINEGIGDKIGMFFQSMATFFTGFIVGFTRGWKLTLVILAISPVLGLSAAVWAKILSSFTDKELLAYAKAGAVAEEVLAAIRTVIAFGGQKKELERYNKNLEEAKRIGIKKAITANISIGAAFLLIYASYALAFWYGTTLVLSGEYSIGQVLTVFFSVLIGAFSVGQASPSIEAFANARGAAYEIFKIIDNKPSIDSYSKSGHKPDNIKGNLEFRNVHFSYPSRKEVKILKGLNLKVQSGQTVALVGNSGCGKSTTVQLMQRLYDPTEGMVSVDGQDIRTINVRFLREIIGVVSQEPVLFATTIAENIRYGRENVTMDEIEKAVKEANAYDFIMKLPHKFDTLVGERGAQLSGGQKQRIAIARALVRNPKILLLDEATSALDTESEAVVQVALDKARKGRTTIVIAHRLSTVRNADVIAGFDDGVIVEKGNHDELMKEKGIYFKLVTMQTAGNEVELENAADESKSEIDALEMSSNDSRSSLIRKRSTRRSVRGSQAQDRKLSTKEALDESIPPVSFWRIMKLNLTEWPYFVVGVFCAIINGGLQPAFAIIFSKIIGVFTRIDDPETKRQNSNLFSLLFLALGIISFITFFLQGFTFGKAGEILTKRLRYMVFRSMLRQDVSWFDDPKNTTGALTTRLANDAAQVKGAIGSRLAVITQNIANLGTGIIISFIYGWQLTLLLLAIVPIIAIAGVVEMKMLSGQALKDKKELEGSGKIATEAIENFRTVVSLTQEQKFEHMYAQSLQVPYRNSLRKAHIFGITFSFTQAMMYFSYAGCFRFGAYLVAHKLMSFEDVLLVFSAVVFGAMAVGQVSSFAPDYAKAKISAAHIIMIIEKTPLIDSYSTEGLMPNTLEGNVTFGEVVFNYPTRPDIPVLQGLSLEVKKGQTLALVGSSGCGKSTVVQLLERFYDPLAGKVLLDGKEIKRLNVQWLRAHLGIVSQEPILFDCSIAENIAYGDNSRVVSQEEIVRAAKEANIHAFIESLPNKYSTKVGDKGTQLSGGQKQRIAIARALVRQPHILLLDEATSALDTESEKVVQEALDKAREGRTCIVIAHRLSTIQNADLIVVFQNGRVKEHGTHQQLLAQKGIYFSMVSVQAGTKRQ

## COc1ccc2cc3[n+](cc2c1OC)CCc1cc2c(cc1-3)OCO2 [Compound 24, berberine]
P-glycoprotein (P-gp)
  interaction with P-gp: P-gp substrate
[1]; plasma, 3.54 g/kg, HL (Huang-Lian) group: rats, oral extract 3.54 g/kg, plasma
  AUC(0-t): 198 ± 76.9 ng·h/mL
[1]; plasma, 3.54 g/kg, Huang-Lian group: rats, oral 3.54 g/kg, plasma
  AUC(0-t): 198 ± 76.9 ng·h/mL
[1]; plasma, 16.5 g/kg, GQD-GC group (GQD without Gan-Cao): rats, oral 16.5 g/kg, plasma
  AUC(0-t): 149 ± 70.8 ng·h/mL
[1]; plasma, 16.5 g/kg, GQD−GC group: rats, oral 16.5 g/kg, plasma
  AUC(0-t): 149 ± 70.8 ng·h/mL
[1]; [2]
  AUC(0-t): 389 ± 187 ng·h/mL
[1]; [3]
  Cmax: 28.2 ± 17.4 ng/mL
  half-life: 11.4 ± 2.78 h
  Tmax: 0.39 ± 0.76 h
[1]; [4]
  Cmax: 32.3 ± 13.2 ng/mL
  half-life: 7.09 ± 0.65 h
  Tmax: 0.35 ± 0.23 h
[1]; [5]
  Cmax: 76.7 ± 27.9 ng/mL
  half-life: 9.3 ± 1.67 h
  Tmax: 0.29 ± 1.12 h
[1]; rats, oral, GQD vs Huang-Lian
  increase of AUClast in GQD group compared with the Huang-Lian group: 96.5%
[1]; rats, oral, abstract
  improvement of plasma concentrations by GQD (vs Huang-Lian): at least 30%

## CC1(C)[C@@H](O[C@H]2O[C@H](C(=O)O)[C@@H](O)[C@H](O)[C@H]2O[C@@H]2O[C@H](C(=O)O)[C@@H](O)[C@H](O)[C@H]2O)CC[C@]2(C)[C@H]3C(=O)C=C4[C@@H]5C[C@@](C)(C(=O)O)CC[C@]5(C)CC[C@@]4(C)[C@]3(C)CC[C@@H]12 [Compound 36, glycyrrhizic acid]
P-glycoprotein (P-gp); listed as GLY
  interaction with P-gp: inhibiting P-glycoprotein; also recorded: P-gp inhibitor
P-glycoprotein (P-gp); GLY 5 μM, especially after 150 min treatment
  counteraction of the impact of rifampicin on BER transport: could counteract the impact of 5 or 20, but not 50 μM rifampicin
[1]; [6]
  AUClast: 790.47 ± 362.54 ng·h/mL
  Cmax: 46.4 ± 0.89 ng/mL
  half-life: 4.08 ± 1.07 h
  Tmax: 5.89 ± 0.98 h
[1]; [2]
  AUC(0-t): 871 ± 571 ng·h/mL
[1]; plasma, 18.9 g/kg, GQD group: rats, oral GQD 18.9 g/kg (1.5-fold of clinical dosage), plasma
  AUC(0-t): 871 ± 571 ng·h/mL
[1]; [3]
  Cmax: 55.6 ± 14.3 ng/mL
  half-life: 4.78 ± 9.98 h
  Tmax: 6.9 ± 0.28 h
[1]; rats, oral
  change of pharmacokinetics by GQD compared with Gan-Cao: hardly changed
